We go through five compounds from patent US9242984B2, “Pyrazolyl derivatives as Syk inhibitors” (Merck Sharp & Dohme Corp., priority 2012, dated 2016).

This assay concerns the target T1, recombinant human Syk (GST-hSyk fusion protein) (Homo sapiens, UniProt P43405).
T1 construct: purchased Carna Biosciences 08-176
The assay is described as follows: Homogeneous Time-Resolved Fluorescence (HTRF) assay for the recombinant human Syk enzyme. The class given is biochemical. As to conditions: IC50 class; 10-dose titration, 25 μM ATP; read-out: rhSYK Activity. An outline of the steps: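 GST-hSyk (5 pM) preincubated 10 min with compound (0.1% DMSO) in 15 mM Tris-HCl pH 7.5, 2 mM DTT; reaction started with 250 nM biotinylated peptide, 5 mM Mg, 25 μM ATP, 45 min, room temperature. EDTA quench, Eu-anti-phosphotyrosine/SA-APC HTRF read after 30 min; IC50 from 10-dose titration (10 μM–0.508 nM), four-parameter fit.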
In general terms: TR-FRET usually uses a lanthanide donor and a delayed reading to cut background.
`OC1(Cn2cc(-c3cccc(Nc4nccc(C(F)F)n4)c3)cn2)CCC1` [Example 29.4, 1-{[4-(3-{[4-(difluoromethyl)pyrimidin-2-yl]amino}phenyl)-1H-pyrazol-1-yl]methyl}cyclobutanol]: the IC50 is not above 100 nM. In the case of `Cc1cc(Nc2nccc(C)n2)cc(-c2cnn(CC3(O)CCC3)c2)c1` [Example 29.5, 1-[(4-{3-methyl-5-[(4-methylpyrimidin-2-yl)amino]phenyl}-1H-pyrazol-1-yl)methyl}cyclobutanol], the IC50 was not above 100 nM. For `Cc1cc(Nc2ncc(F)c(C(F)F)n2)cc(-c2cnn(CC3(O)CCC3)c2)c1` [Example 29.6, 1-{[4-(3-{[4-(difluoromethyl)-5-fluoropyrimidin-2-yl]amino}-5-methylphenyl)-1H-pyrazol-1-yl]methyl}cyclobutanol], the IC50 is not above 100 nM. On to `Cc1cc(Nc2cc(C3CC3)ccn2)nc(-c2cnn(CC3(O)CCC3)c2)c1` [Example 29.7, 1-[(4-{6-[(4-cyclopropylpyridin-2-yl)amino]-4-methylpyridin-2-yl}-1H-pyrazol-1-yl)methyl]cyclobutanol], for which the IC50 was not above 100 nM.

Turning to “N-[2-methyl-6-(1-methyl-1H-pyrazol-4-yl)pyridin-4-yl]-4-(trifluoromethyl)-pyrimidin-2-amine [Example 1.43]”, the IC50 fell in the range of 100 to 1000 nM.
